From patent publication US9061984B2 (University of Louisville Research Foundation, Inc., priority 2008, dated 2015) come the findings set out here.

The nature of data set [1]: Cytotoxicity on VERO cells (MTT), anti-T. cruzi study. The conditions noted are these: African green monkey, VERO cells, Cytotoxicity VERO Lab B, Lab B.
Data set [2] relates to L. braziliensis PER006. In words: Activity against macrophages infected with Leishmania amastigotes. The conditions noted are these: Leishmania braziliensis, Macrophage, read-out: IC50 L. braziliensis PER006.
Data set [3] relates to L. peruviana LCA08. Described as above. As to conditions: Leishmania peruviana, Macrophage, read-out: IC50 L. peruviana LCA08.
Method: A cloned line of Leishmania amazonensis(strain MHOM/BR/76/LTB-012) was used in all experiments. Axenically grown amastigote forms of L. amazonensis were maintained by weekly subpassages in MAA/20 medium (Sereno and Lemesre, Antimicrobial Agents and Chemotherapy 41, 972-976 (1997)) at 32±1° C. in 25 cm^2 tissue culture flasks. L. peruviana (strain MHOM/PE/LCA08) and L. braziliensis (strainMHOM/PE/PER006) were maintained in the promastigote stage in a biphasic medium (blood agar with 0.89% NaCl, pH 7.4) at 24° C., with sub-passage every 3 to 4 days. Promastigotes (5×10^6 parasites) were then transferred to 25 cm2 tissue culture flasks containing 5 ml of M199 medium supplemented with 10% foetal bovine serum (FBS), pH 7.4. After 4 days, exponential phase promastigotes were centrifuged for 10 minutes at 1500 g and 4° C. The supernatant was discarded and replaced by fresh M199 medium supplemented with 20% FBS, pH 5.5. Axenic amastigotes transformation was then induced by increasing the temperature to 34° C. and incubating for 96 h (Teixeira et al., Parasitology Research 88, 963-968 (2002)).
Extracted cells were immediately deposited on sterile 4×4 mm cover glasses and placed in each well of a 96-well plate. Plates were incubated for 24 h at 37° C., 5% CO2 to allow cell adhesion (Castillo et al, Journal of Ethnopharmacology 112, 410-414 (2007)). Pre-warmed complete M199 medium was used twice to remove non-adherent cells. A neutral red method (Fautz et al., Mutation Research 253, 173-179 (1991)) was employed to determine cell concentration. Approximately 7×10^4 viable cells were deposited in each well for adhesion.
Infection of macrophages by amastigotes was determined as follows. […] Twelve hours after infection, a solution of the compounds to be tested was added to the cultures at various concentrations and maintained at 37° C. in 5% CO2 for a further forty-eight hours more. The plates were fixed with methanol and stained with 10% Giemsa stain. The percentage of infected macrophages was determined microscopically at 100 times magnification. The number of intracellular amastigotes was determined in 300 cells. Following Delorenzi et al. Antimicrobial Agents and Chemotherapy, 45, 1349-1354 (2001)) the percentage of infection rate (% IR) of each culture was calculated as follows: % IR=100−(infection rate of the treated culture/infection rate of the untreated culture)×100.
All experiments were performed in triplicate. ANOVA was used to test for statistical significance of differences (Epi-Info, Statview student program). The total parasite burden was calculated as a mean number of amastigotes per cells multiplied by the number of infected macrophages.
Data set [4] has as its system 3T3 cells. In words: Cell growth inhibition bioassay (sulforhodamine B). The data set is classed as cell-based, mouse. The conditions noted are these: Mus musculus, NIH3T3; 48 h, SRB; read-out: GI50 in indicated cell line: 3T3. The method in brief: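 Cells were exposed to compound alongside matched solvent controls, then stained with sulforhodamine B. Percent growth inhibition was calculated from dye absorbance against the control.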

For data set [5], the system named is Trypanosoma cruzi (Tulahuen C4). In words: In vitro anti-T. cruzi activity (β-galactosidase CPRG colorimetric assay in VERO monolayer). As to conditions: for IC50: Trypanosoma cruzi, TULAHUEN, Vero. The data set is classed as cell-based.
The test system of data set [6] is VERO cells. In words: Cell growth inhibition bioassay (sulforhodamine B). In kind it is cell-based, African Green Monkey. As to conditions: Chlorocebus sabaeus, Vero; 48 h, SRB; read-out: GI50 in indicated cell line: VERO. The method in brief:
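Cytotoxicity is read by sulforhodamine B colorimetry following the Skehan protocol; values are growth inhibition relative to solvent-only wells.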

Data set [7] has as its system axenic amastigotes of L. amazonensis (strain MHOM/BR/76/LTB-012). The conditions noted are these: Table 8b.
The subject of data set [8] is M. tuberculosis H37Rv. Description: Conventional aerobic (MABA) culture assay, luminescence MIC. The data set is classed as cell-based, Mycobacterium tuberculosis.
Data set [9] in a line: Cytotoxicity VERO cell (Table 6). The conditions noted are these: African green monkey, VERO cells.

In brackets after ≈: the same amount, converted by molar mass. Read-outs that look alike come from different tables or passages of the source. Bounds are passed on as bounds.

For `C(=N/Nc1ncnc2sc3c(c12)CCCC3)/c1ccccn1` [II-21], the IC50 is under 0.08 µg/mL in [1]; 0.19 µg/mL (≈ 0.614 µM) in [2]; 0.2 µg/mL (≈ 0.646 µM) in data set [3]; 0.1 µg/mL (≈ 0.323 µM) in data set [5] (Lab A, read-out: T. cruzi IC50 Lab A); 1.2 µg/mL (≈ 3.88 µM) in [5] (Lab B, read-out: T. cruzi IC50 Lab B); 10.8 µg/mL (≈ 34.9 µM) in data set [9]. The GI50 in data set [4] was found to be 0.013 µg/mL (≈ 0.042 µM); in data set [6] it was 0.156 µg/mL (≈ 0.504 µM). For the same molecule, the “Selectivity Index Lab B” value in [5] (IC50, VERO/IC50, T. cruzi, Lab B) is on record as 0.1. Further, in [7], the “Selectivity Index” value was determined as 13.0. The MIC in data set [8] (Mycobacterium tuberculosis, 168 h, aerobic, 7 days, H37Rv) came to 44.9 µg/mL (≈ 145 µM). Also, in data set [8] (VERO vs MABA MIC), the “Selectivity Index H37Rv” value is 0.2.
